row,melting point [°C],SMILES
1,183 to 184,"COC(=O)c1ccc(-c2nc(-c3ccc(Cl)cc3)co2)cc1 [Example 1, methyl 4-[4-(4-chlorophenyl)-2-oxazolyl]benzoate]"
2,182 to 183,"COC(=O)c1ccc(-c2nc(-c3ccc(C(F)(F)F)cc3)co2)cc1 [Example 2, methyl 4-[4-(4-trifluoromethylphenyl)-2-oxazolyl]benzoate]"
3,200 to 202,"COC(=O)c1ccc(-c2nc(-c3ccc(OC)cc3)co2)cc1 [Example 3, methyl 4-[4-(4-methoxyphenyl)-2-oxazolyl]benzoate]"
4,175 to 176,"COC(=O)c1ccc(-c2nc(-c3ccccc3)co2)cc1 [Example 4, methyl 4-(4-phenyl-2-oxazolyl)benzoate]"
5,110 to 112,"CCOC(=O)c1ccc(-c2coc(-c3ccccc3)n2)cc1 [Example 5, ethyl 4-(2-phenyl-4-oxazolyl)benzoate]"
6,153 to 154,"CCOC(=O)c1ccc(-c2coc(-c3ccc(Cl)cc3)n2)cc1 [Example 6, ethyl 4-[2-(4-chlorophenyl)-4-oxazolyl)benzoate]"
7,189 to 190,"COC(=O)c1ccc(-c2nc(-c3ccc(Cl)s3)co2)cc1 [Example 7, methyl 4-[4-(5-chloro-2-thienyl)-2-oxazolyl]benzoate]"
8,286 to 287,"COc1ccc(-c2coc(-c3ccc(C(=O)O)cc3)n2)cc1 [Example 10, 4-[4-(4-methoxyphenyl)-2-oxazolyl]benzoic acid]"
9,275 to 276,"O=C(O)c1ccc(-c2nc(-c3ccccc3)co2)cc1 [Example 11, 4-(4-phenyl-2-oxazolyl]benzoic acid]"
10,271 to 273,"O=C(O)c1ccc(-c2coc(-c3ccccc3)n2)cc1 [Example 12, 4-(2-phenyl-4-oxazolyl]benzoic acid]"
11,288 to 289,"O=C(O)c1ccc(-c2coc(-c3ccc(Cl)cc3)n2)cc1 [Example 13, 4-[2-(4-chlorophenyl)-4-oxazolyl]benzoic acid]"
12,≥ 300,"O=C(O)c1ccc(-c2nc(-c3ccc(Cl)s3)co2)cc1 [Example 14, 4-[4-(5-chloro-2-thienyl)-2-oxazolyl]benzoic acid]"
13,264 to 265,"O=C(O)c1ccc(-c2nc(-c3ccccc3C(F)(F)F)co2)cc1 [Example 15, 4-[4-(2-trifluoromethylphenyl)-2-oxazolyl]benzoic acid]"
14,134 to 135,"COC(=O)c1ccc(-c2nc(-c3cccc(C(F)(F)F)c3)co2)cc1 [Example 16, methyl 4-[4-(3-trifluoromethylphenyl)-2-oxazolyl]benzoate]"
15,180 to 181,"COC(=O)c1ccc(-c2nc(-c3cc(C(F)(F)F)cc(C(F)(F)F)c3)co2)cc1 [Example 17, methyl 4-[4-[3,5-bis(trifluoromethyl)phenyl]-2-oxazolyl]benzoate]"
16,160 to 161,"COC(=O)c1ccc(-c2nc(-c3ccc(OC(F)F)cc3)co2)cc1 [Example 18, methyl 4-[4-(4-difluoromethoxylphenyl)-2-oxazolyl]benzoate]"
17,168 to 170,"CCOC(=O)c1ccc(-c2coc(-c3ccc(C(F)(F)F)cc3)n2)cc1 [Example 19, ethyl 4-[2-(4-trifluoromethylphenyl)-4-oxazolyl]benzoate]"
18,132 to 133,"CCOC(=O)c1ccc(-c2coc(-c3cccc(C(F)(F)F)c3)n2)cc1 [Example 20, ethyl 4-[2-(3-trifluoromethylphenyl)-4-oxazolyl]benzoate]"

row,melting point [°C],SMILES
1,151 to 152,"COC(=O)c1cccc(-c2nc(-c3ccc(C(F)(F)F)cc3)co2)c1 [Example 21, methyl 3-[4-(4-trifluoromethylphenyl)-2-oxazolyl]benzoate]"
2,253 to 254,"O=C(O)c1ccc(-c2nc(-c3cccc(C(F)(F)F)c3)co2)cc1 [Example 22, 4-[4-(3-trifluoromethylphenyl)-2-oxazolyl]benzoic acid]"
3,277 to 279,"O=C(O)c1ccc(-c2nc(-c3cc(C(F)(F)F)cc(C(F)(F)F)c3)co2)cc1 [Example 23, 4-[4-[3,5-bis(trifluoromethyl)phenyl)-2-oxazolyl]benzoic acid]"
4,261 to 262,"O=C(O)c1ccc(-c2nc(-c3ccc(OC(F)F)cc3)co2)cc1 [Example 24, 4-[4-(4-difluoromethoxylphenyl)-2-oxazolyl]benzoic acid]"
5,294 to 295,"O=C(O)c1ccc(-c2coc(-c3ccc(C(F)(F)F)cc3)n2)cc1 [Example 25, 4-[2-(4-trifluoromethylphenyl)-4-oxazolyl]benzoic acid]"
6,268 to 269,"O=C(O)c1ccc(-c2coc(-c3cccc(C(F)(F)F)c3)n2)cc1 [Example 26, 4-[2-(3-trifluoromethylphenyl)-4-oxazolyl]benzoic acid]"
7,206 to 208,"O=C(O)c1cccc(-c2nc(-c3ccc(C(F)(F)F)cc3)co2)c1 [Example 27, 3-[4-(4-trifluoromethylphenyl)-2-oxazolyl]benzoic acid]"
8,146 to 148,"COC(=O)c1ccc(-c2nc(-c3ccc(OC(F)F)cc3)cs2)cc1 [Example 28, methyl 4-[4-(4-difluoromethoxyphenyl)-2-thiazolyl]benzoate]"
9,186 to 187,"COC(=O)c1ccc(-c2nc(-c3ccc(Cl)cc3)cs2)cc1 [Example 29, methyl 4-[4-(4-chlorophenyl)-2-thiazolyl]benzoate]"
10,171 to 172,"COC(=O)c1ccc(-c2nc(-c3ccc(Cl)s3)cs2)cc1 [Example 30, methyl 4-[4-(5-chloro-2-thienyl)-2-thiazolyl]benzoate]"
11,234 to 236,"Br.CCOC(=O)c1ccc(-c2csc(-c3cccnc3)n2)cc1 [Example 31, ethyl 4-[2-(3-pyridyl)-4-thiazolyl]benzoate hydrobromide]"
12,185 to 187,"COC(=O)c1ccc(-c2nc(-c3ccc(C)cc3)cs2)cc1 [Example 33, methyl 4-[4-(4-methylphenyl)-2-thiazolyl]benzoate]"
13,241 to 242,"Br.COC(=O)c1ccc(-c2nc(-c3cccnc3)cs2)cc1 [Example 34, methyl 4-[4-(3-pyridyl)-2-thiazolyl]benzoate hydrobromide]"
14,238 to 240,"Br.COC(=O)c1ccc(-c2nc(-c3ccncc3)cs2)cc1 [Example 35, methyl 4-[4-(4-pyridyl)-2-thiazolyl]benzoate hydrobromide]"
15,248 to 250,"Br.CCOC(=O)c1ccc(-c2csc(-c3ccncc3)n2)cc1 [Example 36, ethyl 4-[2-(4-pyridyl)-4-thiazolyl]benzoate hydrobromide]"
16,243 to 244,"Br.COC(=O)c1ccc(-c2nc(-c3ccccn3)cs2)cc1 [Example 38, methyl 4-[4-(2-pyridyl)-2-thiazolyl]benzoate hydrobromide]"
17,234 to 236,"CCOC(=O)c1ccc(-c2csc(-c3ccc(Cl)cc3)n2)s1 [Example 39, ethyl 5-[2-(4-chlorophenyl)-4-thiazolyl]-2-thienylcarboxylate]"
18,132 to 134,"COC(=O)c1ccc(-c2nc(-c3cccc(OC(F)(F)F)c3)cs2)cc1 [Example 40, methyl 4-[4-(3-trifluoromethoxyphenyl)-2-thiazolyl]benzoate]"
